Data published in paper PMC8159961, “Exploring protein hotspots by optimized fragment pharmacophores” (Nature Communications, 2021).

Columns and labels:
human 5-HT7b receptor = molecular target: T1, human 5-HT7b receptor (Homo sapiens, UniProt P34969); assay: GPCR radioligand binding assay, [3H]-5-CT displacement, HEK293 membranes; settings: for 5-HT7 % Inhibition by plate position: 10 µM; for %inh 5-HT7 average: average of exp_1 and exp_2; for %inh 5-HT7 exp_1: replicate exp_1; for %inh 5-HT7 exp_2: replicate exp_2
T1 construct: expressed in transfected cells
T1 sequence (P34969 1-432): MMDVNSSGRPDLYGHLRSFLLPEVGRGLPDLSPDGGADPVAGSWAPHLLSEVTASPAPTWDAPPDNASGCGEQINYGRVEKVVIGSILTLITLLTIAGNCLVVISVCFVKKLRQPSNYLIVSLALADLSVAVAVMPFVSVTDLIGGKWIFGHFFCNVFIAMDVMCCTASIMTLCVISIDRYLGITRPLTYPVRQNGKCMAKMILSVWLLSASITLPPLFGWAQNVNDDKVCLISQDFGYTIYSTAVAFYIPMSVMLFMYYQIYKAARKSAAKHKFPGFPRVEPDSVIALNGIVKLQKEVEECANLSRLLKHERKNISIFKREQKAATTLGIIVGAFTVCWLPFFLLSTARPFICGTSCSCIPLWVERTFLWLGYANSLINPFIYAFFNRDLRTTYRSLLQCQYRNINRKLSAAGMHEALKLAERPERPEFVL

human 5-HT6 receptor = molecular target: T2, human 5-HT6 receptor (Homo sapiens, UniProt P50406); assay: GPCR radioligand binding assay, [3H]-LSD displacement, HEK293 membranes; settings: for 5-HT6 % Inhibition by plate position: 10 µM; for %inh 5-HT6 average: average of exp_1 and exp_2; for %inh 5-HT6 corrected*: average, values below 0 and above 100% were set as 0 and 100; for %inh 5-HT6 exp_1: replicate exp_1; for %inh 5-HT6 exp_2: replicate exp_2
T2 construct: expressed in transfected cells
T2 sequence (P50406 whole entry): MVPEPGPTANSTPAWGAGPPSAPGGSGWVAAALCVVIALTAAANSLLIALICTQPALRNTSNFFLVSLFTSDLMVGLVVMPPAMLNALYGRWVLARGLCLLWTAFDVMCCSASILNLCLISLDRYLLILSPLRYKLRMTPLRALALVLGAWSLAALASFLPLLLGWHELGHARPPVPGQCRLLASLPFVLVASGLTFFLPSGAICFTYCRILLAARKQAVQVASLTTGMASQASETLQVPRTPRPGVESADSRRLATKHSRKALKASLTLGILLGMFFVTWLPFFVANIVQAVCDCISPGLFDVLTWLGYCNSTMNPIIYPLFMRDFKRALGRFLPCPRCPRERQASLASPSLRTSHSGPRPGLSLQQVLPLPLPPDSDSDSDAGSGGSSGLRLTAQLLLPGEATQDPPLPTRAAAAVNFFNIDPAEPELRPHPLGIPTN

human 5-HT1A receptor = molecular target: T3, human 5-HT1A receptor (Homo sapiens, UniProt P08908); assay: GPCR radioligand binding assay, [3H]-8-OH-DPAT displacement, HEK293 membranes; settings: for %inh 5-HT1A average: average of exp_1 and exp_2; for %inh 5-HT1A corrected*: average, values below 0 and above 100% were set as 0 and 100; for %inh 5-HT1A exp_1: replicate exp_1; for %inh 5-HT1A exp_2: replicate exp_2; for 5-HT1A % Inhibition by plate position: 10 µM
T3 construct: expressed in transfected cells
T3 sequence (P08908 1-422): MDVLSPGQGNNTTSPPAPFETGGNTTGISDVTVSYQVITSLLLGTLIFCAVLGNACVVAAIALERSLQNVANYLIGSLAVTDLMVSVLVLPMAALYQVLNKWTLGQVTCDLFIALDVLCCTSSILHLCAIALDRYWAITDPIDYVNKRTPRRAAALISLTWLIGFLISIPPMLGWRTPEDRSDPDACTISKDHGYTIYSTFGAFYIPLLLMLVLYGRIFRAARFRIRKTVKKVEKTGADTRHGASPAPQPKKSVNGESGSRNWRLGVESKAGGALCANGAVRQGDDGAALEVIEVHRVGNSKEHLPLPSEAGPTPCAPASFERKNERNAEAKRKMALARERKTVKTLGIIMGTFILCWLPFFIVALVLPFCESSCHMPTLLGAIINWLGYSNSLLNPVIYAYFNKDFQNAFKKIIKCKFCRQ

| SMILES | 5-HT7 % Inhibition by plate position (human 5-HT7b receptor) [%] | %inh 5-HT7 average (human 5-HT7b receptor) [%] | %inh 5-HT7 exp_1 (human 5-HT7b receptor) [%] | %inh 5-HT7 exp_2 (human 5-HT7b receptor) [%] | 5-HT6 % Inhibition by plate position (human 5-HT6 receptor) [%] | %inh 5-HT6 average (human 5-HT6 receptor) [%] | %inh 5-HT6 corrected* (human 5-HT6 receptor) [%] | %inh 5-HT6 exp_1 (human 5-HT6 receptor) [%] | %inh 5-HT6 exp_2 (human 5-HT6 receptor) [%] | %inh 5-HT1A average (human 5-HT1A receptor) [%] | %inh 5-HT1A corrected* (human 5-HT1A receptor) [%] | %inh 5-HT1A exp_1 (human 5-HT1A receptor) [%] | %inh 5-HT1A exp_2 (human 5-HT1A receptor) [%] | 5-HT1A % Inhibition by plate position (human 5-HT1A receptor) [%] |
| --- | --- | --- | --- | --- | --- | --- | --- | --- | --- | --- | --- | --- | --- | --- |
| O=C1CNCCN1c1ccccc1 [B2] | 0 | -2.46 | 14 | -19 | 47 | 47 | 47 | 50 | 44 | 4.62 | 4.62 | 9 | 0 | – |
| Cc1nccn1Cc1cccc(C#N)c1 [F8] | 9 | – | 14 | 3.57 | 41 | 41 | 41 | 40 | 42 | 10 | 10 | 7 | 13 | – |
| c1ccc(-c2ccncc2)cc1 [C2] | 6 | – | 14 | -2 | 36 | 36 | 36 | 32 | 40 | -6 | – | -11 | 0 | 0 |
| CCN(CC)c1cccc(C)c1 [E4] | 7.56 | – | 12 | 2.81 | 31 | 31 | 31 | 31 | 32 | 8.49 | 8.49 | 13 | 4 | – |
| C1=C[C@H]2O[C@@H]1c1ccccc12 [C11] | 0 | -8 | -5.66 | -11 | 46 | 46 | 46 | 42 | 50 | -11 | – | -11 | -11 | 0 |
| COc1ccccc1N1CCNCC1 [A10] | 72 | – | 67 | 76 | 69 | 69 | 69 | 80 | 58 | 102 | – | 101 | 103 | 100 |
| O=c1[nH]ncc2c1oc1ccccc12 [B6] | 0 | -4 | 3.34 | -11 | 26 | 26 | 26 | 18 | 34 | -6.46 | – | -14 | 0.625 | 0 |
| CC(=O)c1ccc2c(c1)CCCN2 [C7] | 0 | -16 | -14 | -18 | 9 | 9 | 9 | 10 | 8 | 2.29 | 2.29 | -2 | 6.6 | – |
| Nc1ccc(-c2ccccc2)cc1C(=O)O [G9] | 15 | – | 16 | 14 | 37 | 37 | 37 | 34 | 40 | 15 | 15 | 13 | 18 | – |
| Cc1ccc(CCNc2ccccc2)cn1 [H11] | 0 | -0.222 | -13 | 12 | 0 | -0.844 | 0 | 7 | -9 | 5 | 5 | 11 | -0.501 | – |
| NCC1(c2ccccc2)CCOCC1 [F10] | 6 | – | -0.903 | 13 | 23 | 23 | 23 | 20 | 25 | 11 | 11 | 10 | 12 | – |
| Oc1ccc(-n2cncn2)cc1 [H5] | 25 | – | 29 | 21 | 36 | 36 | 36 | 39 | 32 | -1.29 | – | -9 | 6 | 0 |
| CC1(C)OC(=O)c2cc(Br)c(O)cc2O1 [C6] | 0.891 | – | 1.78 | 0 | 56 | 56 | 56 | 67 | 45 | -0.191 | – | -7.5 | 7 | 0 |
| Oc1ccc(C2CCNCC2)cc1 [E11] | 11 | – | 10 | 12 | 43 | 43 | 43 | 44 | 42 | 5.37 | 5.37 | 3 | 8 | – |
